From publication PMC9415367 (Viruses, 2022)
Entries after “also recorded” stand apart in the source; their conditions may differ.

Assays:
[1] = system: Influenza virus; parameters: method as in earlier work; settings: cited from earlier work
[2] = biological target: T1, HEV-MTase (Hepatitis E virus genotype 1, UniProt P33424); test: MicroScale Thermophoresis (MST) binding affinity; settings: 50 nM MTase, HPPA 10 μM to 150 pM; read-out: Dissociation constant (Kd)
T1 construct: made in house; host or cells: E. coli BL21-DE3

[3] = system: p6 HEV-Luc Replicon; test: HEV replicon Renilla luciferase assay in Huh7 cells; type: cell-based, Hepatitis E Virus; settings: for Inhibition of HEV Replicon (luciferase activity): Huh7 cells
[4] = system: HEV-ORF2; test: Western blot of HEV ORF2; type: cell-based, Hepatitis E Virus; settings: treated vs untreated cells, 7 days post-transfection
[5] = system: Huh7 cells; test: Cell viability assay (MTT)
[6] = Cell viability assay (MTT); settings: human, Huh7 cells
[7] = biological target: T1, HEV-MTase; test: Cell-free inhibition of HEV-MTase activity (MTase-Glo Methyltransferase Assay); type: biochemical; settings: 0.675 μM enzyme; for Inhibition of HEV-MTase activity: 1 μM compound
[8] = in vitro; settings: human, Huh7 cells
[9] = system: HEV-ORF2; test: Immunofluorescence assay of HEV ORF2; type: cell-based, Hepatitis E Virus; settings: 800 μM, 7 days post-transfection; untreated 100%

T1 sequence (P33424 33-353): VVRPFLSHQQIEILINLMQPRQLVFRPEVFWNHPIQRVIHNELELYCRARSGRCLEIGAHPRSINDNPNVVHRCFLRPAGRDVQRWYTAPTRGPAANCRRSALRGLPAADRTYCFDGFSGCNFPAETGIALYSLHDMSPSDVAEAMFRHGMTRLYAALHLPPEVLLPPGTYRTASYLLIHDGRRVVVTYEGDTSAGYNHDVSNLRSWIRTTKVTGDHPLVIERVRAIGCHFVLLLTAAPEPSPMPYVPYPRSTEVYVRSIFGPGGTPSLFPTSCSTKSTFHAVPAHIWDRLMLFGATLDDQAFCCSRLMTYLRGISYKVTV

SMILES	Influenza virus propagation [1]	Kd [2] [µM]	IC50 ([3]; Hepatitis E virus, Huh-7, 72 h, read-out: 50% inhibitory concentration (IC50), HEV replicon) [µM]	Inhibition of HEV Replicon (luciferase activity) [3]	Inhibition of HEV Replicon (luciferase activity) ([3]; listed as HPPA)	ORF2 expression (Western blot) [4]	Cytotoxic effects [5]	CC50 at 72 h [6] [µM]	IC50 ([7]; 1 μM SAM, 0.5 mM GTP, 37 °C, 2 h, ligand 0 to 10 μM) [µM]	Inhibition of HEV-MTase activity [7]	viability at 72 h, 18.7 µM [8] [%]	ORF2 fluorescence level [9]
O=C(O)CCc1ccc(O)cc1 [Compound 1, 3-(4-hydroxyphenyl)propionic acid]	prevents Influenza virus propagation	~2	77.1 ± 18.7	showed the inhibition of HEV Replicon	significantly reduced	decrease in ORF2 expression	without any cytotoxic effects	> 1000	0.932 ± 0.15	maximum inhibition among all the inhibitors; also recorded: inhibited the MTase activity	~95	~ 25%
O=C(O)Cc1ccc(O)cc1 [Compound 2, 2-(4-hydroxyphenyl)acetate]	–	–	–	–	–	–	–	–	–	inhibited the MTase activity	–	–
CO[C@H]1O[C@H](CO)[C@@H](O)[C@H](O)[C@@H]1O [Compound 6, (2R,3S,4S,5S,6S)-2-(hydroxymethyl)-6-methoxyoxane-3,4,5-triol]	–	–	–	–	–	–	–	–	–	inhibited the MTase activity	–	–
